Several values for one entry are separate records, joined by “and”; a condition that tells them apart may be missing. Equal entries are not always repeated. Entries after “also recorded” stand apart in the source; their conditions may differ. Where two headings read alike, the source gives them in different places. One block for each molecule: values may come before it.
Key:
[1] = biological target: T1, mGlu5 (Rattus norvegicus, UniProt P31424); settings: cited from earlier work
[2] = test system: amphetamine-induced hyperlocomotion in rats; settings: cited from earlier work
[3] = biological target: T1, mGlu5; assay: mGlu5 cell-based in vitro functional assay; settings: for IC50/EC50 (nM): IC50: NAM; for IC50/EC50 (nM): IC50 / IC50/EC50 (nM): EC50: average of at least three independent determinations; for IC50/EC50 (nM): EC50: PAM, potentiation in the presence of glutamate EC20
[4] = biological target: mGlu1 (Homo sapiens, UniProt Q13255); assay: mGlu selectivity, mGlu1; format: cell-based
[5] = biological target: mGlu2 (Homo sapiens, UniProt Q14416); assay: mGlu selectivity, mGlu2; format: cell-based
[6] = biological target: mGlu3 (Homo sapiens, UniProt Q14832); assay: mGlu selectivity, mGlu3; format: cell-based
[7] = biological target: mGlu4 (Homo sapiens, UniProt Q14833); assay: mGlu selectivity, mGlu4; format: cell-based
[8] = biological target: mGlu7 (Homo sapiens, UniProt Q14831); assay: mGlu selectivity, mGlu7; format: cell-based
[9] = biological target: mGlu8 (Homo sapiens, UniProt O00222); assay: mGlu selectivity, mGlu8; format: cell-based
[10] = test system: punished responding; assay: Modified Geller-Seifter conflict model; format: in vivo, rodent; settings: 1, 3, 10, 30 mg/kg
[11] = test system: amphetamine-induced hyperlocomotion in rats; assay: Reversal of amphetamine-induced hyperlocomotion; format: in vivo

T1 sequence (P31424 21-1203): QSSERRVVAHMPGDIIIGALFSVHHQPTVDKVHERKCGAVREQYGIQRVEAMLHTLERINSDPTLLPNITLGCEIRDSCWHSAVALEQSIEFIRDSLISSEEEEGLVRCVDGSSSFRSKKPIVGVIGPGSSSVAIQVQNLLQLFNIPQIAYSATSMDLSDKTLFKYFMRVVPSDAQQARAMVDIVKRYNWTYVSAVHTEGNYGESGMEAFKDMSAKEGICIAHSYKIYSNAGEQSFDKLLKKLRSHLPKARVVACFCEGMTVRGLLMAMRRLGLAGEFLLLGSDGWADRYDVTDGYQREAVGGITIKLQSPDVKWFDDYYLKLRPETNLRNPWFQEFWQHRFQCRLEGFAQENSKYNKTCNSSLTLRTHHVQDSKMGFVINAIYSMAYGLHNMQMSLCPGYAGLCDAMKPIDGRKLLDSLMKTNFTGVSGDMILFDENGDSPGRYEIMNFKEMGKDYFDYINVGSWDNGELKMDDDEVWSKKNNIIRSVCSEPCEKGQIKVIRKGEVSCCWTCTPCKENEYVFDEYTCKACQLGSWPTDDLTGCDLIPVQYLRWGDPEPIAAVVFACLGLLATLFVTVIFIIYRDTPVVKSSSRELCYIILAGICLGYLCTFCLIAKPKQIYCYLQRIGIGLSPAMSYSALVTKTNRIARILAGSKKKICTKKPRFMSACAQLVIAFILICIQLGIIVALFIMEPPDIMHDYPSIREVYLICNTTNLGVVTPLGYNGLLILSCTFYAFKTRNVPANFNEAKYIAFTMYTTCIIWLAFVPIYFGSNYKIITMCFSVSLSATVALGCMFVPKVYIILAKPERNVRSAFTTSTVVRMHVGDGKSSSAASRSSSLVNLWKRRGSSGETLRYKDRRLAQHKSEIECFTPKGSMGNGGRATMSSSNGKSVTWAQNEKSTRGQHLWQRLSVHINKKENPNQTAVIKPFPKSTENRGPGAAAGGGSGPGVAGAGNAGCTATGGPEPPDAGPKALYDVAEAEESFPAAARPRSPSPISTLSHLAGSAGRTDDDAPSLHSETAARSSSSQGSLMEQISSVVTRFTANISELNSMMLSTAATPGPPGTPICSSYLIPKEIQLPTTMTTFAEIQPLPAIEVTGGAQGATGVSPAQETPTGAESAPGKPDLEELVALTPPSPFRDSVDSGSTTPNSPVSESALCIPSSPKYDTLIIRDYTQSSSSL
Sequence of mGlu1 (Q13255 19-1194): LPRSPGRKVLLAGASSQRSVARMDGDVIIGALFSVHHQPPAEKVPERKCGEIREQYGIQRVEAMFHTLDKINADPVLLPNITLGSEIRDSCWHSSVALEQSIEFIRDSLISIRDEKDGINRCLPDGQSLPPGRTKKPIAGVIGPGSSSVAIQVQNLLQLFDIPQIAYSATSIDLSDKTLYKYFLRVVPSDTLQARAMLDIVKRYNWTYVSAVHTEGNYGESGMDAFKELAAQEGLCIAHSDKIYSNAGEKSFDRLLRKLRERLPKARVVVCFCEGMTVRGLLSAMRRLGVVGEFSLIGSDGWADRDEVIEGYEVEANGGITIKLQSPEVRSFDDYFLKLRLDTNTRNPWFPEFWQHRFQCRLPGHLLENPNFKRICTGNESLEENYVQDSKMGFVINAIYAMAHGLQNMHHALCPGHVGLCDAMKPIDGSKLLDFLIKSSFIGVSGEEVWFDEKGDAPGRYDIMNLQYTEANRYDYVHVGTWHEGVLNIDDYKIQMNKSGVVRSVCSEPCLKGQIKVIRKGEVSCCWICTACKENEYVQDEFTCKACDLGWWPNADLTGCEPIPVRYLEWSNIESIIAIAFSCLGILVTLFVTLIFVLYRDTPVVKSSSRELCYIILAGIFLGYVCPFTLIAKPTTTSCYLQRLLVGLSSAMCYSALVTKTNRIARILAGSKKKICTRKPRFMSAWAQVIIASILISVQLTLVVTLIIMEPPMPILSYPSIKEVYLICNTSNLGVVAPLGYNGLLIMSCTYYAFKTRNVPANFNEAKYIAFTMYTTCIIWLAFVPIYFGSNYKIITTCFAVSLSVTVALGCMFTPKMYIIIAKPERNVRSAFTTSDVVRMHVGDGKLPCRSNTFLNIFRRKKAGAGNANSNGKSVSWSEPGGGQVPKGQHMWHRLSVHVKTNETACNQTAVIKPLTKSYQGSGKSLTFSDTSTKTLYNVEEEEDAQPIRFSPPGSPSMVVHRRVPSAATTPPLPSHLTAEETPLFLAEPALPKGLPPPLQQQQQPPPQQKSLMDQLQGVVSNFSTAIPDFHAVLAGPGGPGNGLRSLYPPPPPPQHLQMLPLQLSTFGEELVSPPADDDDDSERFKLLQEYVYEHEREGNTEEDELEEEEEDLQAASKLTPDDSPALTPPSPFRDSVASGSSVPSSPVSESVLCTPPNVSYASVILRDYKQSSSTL
Sequence of mGlu4 (Q14833 33-912): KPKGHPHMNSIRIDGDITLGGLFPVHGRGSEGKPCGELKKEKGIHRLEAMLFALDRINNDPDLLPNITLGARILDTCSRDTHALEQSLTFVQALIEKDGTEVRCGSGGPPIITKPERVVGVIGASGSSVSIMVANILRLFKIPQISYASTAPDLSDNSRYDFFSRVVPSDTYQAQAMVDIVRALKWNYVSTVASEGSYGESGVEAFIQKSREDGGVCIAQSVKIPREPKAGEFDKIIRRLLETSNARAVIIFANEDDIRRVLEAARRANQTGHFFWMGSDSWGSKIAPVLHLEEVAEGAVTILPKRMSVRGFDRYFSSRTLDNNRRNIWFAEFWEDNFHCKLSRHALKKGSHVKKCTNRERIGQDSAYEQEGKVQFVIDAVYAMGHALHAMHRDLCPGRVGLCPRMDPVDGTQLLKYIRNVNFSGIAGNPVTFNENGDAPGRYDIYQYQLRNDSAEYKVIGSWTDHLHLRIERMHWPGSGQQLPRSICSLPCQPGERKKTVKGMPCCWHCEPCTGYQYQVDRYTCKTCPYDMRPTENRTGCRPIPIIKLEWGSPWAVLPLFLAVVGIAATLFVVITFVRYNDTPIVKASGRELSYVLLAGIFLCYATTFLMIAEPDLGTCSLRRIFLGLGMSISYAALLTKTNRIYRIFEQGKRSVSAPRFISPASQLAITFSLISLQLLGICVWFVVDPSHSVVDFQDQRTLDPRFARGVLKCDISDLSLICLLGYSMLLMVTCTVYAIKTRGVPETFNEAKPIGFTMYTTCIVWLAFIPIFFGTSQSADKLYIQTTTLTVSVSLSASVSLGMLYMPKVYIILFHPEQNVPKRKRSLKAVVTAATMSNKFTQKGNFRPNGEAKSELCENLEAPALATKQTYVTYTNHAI
Sequence of mGlu7 (Q14831 35-915): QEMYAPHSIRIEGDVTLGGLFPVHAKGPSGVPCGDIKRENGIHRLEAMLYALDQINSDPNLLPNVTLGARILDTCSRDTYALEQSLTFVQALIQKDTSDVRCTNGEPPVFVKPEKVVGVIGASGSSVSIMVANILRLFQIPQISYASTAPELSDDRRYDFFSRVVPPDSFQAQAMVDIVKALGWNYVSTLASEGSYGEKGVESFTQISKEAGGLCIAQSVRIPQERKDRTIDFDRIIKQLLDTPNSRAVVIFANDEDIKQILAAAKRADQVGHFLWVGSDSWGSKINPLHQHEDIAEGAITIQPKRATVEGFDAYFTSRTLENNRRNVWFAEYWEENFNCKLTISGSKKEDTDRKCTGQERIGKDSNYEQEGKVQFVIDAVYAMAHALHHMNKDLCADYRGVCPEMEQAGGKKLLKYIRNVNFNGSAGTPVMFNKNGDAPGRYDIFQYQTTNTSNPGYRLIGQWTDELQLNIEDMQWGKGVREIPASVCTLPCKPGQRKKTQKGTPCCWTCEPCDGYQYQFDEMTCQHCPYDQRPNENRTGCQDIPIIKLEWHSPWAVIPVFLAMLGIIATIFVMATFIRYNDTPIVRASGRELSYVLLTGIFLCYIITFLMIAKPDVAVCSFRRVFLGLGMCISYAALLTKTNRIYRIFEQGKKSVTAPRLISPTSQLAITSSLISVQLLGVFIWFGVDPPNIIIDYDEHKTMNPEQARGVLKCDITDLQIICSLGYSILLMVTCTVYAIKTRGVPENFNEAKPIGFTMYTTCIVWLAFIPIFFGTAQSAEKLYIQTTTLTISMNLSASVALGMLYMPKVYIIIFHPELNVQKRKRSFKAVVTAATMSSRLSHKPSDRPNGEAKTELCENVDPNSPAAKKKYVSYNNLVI
Sequence of mGlu2 (Q14416 19-872): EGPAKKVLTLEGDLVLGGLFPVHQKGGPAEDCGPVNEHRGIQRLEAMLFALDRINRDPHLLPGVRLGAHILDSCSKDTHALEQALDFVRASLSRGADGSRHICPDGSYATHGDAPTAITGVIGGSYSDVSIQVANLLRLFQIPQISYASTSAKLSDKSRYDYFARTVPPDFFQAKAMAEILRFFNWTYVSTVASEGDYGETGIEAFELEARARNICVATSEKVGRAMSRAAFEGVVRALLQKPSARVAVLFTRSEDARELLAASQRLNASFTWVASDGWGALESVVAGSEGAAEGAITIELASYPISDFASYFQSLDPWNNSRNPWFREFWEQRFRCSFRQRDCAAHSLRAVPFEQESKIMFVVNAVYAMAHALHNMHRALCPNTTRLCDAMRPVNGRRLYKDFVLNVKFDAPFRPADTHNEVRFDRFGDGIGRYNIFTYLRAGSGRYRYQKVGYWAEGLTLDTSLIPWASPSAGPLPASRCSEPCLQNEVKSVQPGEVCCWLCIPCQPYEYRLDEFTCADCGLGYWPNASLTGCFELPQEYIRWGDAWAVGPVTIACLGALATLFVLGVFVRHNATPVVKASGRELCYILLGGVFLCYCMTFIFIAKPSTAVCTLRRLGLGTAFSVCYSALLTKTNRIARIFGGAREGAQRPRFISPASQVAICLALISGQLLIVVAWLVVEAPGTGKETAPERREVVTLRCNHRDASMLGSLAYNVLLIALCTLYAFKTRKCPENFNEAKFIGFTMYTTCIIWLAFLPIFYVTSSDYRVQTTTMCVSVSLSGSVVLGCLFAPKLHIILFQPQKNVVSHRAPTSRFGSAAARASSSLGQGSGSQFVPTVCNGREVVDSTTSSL

Compound: O=C(c1ccc(F)cc1)N1CCC[C@H](c2nc(-c3ccc(F)cc3)no2)C1 [compound 7, reference compound]
- mode of mGlu5 pharmacology in words [1]: ago-potentiators
- efficacy in amphetamine-induced hyperlocomotion model [2]: robust efficacy

Compound: N#Cc1cccc(C(=O)Nc2cc(-c3ccccc3)nn2-c2ccccc2)c1 [compound 6, reference compound]
- mode of mGlu5 pharmacology in words [1]: ago-potentiators
- efficacy in amphetamine-induced hyperlocomotion model [2]: robust efficacy

Compound: Cc1cccc(C#Cc2ncccn2)c1 [17b]
- IC50/EC50 (nM): IC50 [3]: 10.8 ± 2.7 nM
- selectivity vs. mGlu1 [4]: > 10 µM
- selectivity vs. mGlu2 [5]: > 10 µM
- selectivity vs. mGlu3 [6]: > 10 µM
- selectivity vs. mGlu4 [7]: > 10 µM
- selectivity vs. mGlu7 [8]: > 10 µM
- selectivity vs. mGlu8 [9]: > 10 µM
- unpunished responding [10]: no significant effect on unpunished responding; also recorded: did not change significantly at any of the doses tested
- punished responding vs vehicle ([10]; p < 0.05 Newman-Keul): both the 10 and 30 mg/kg doses in the punished component of the schedule differed significantly from vehicle; also recorded: significantly greater number of responses than animals tested on vehicle

Compound: CNc1ncc(C#Cc2ccc(C)cc2)cn1 [16f]
- mGlu5 activity in words [3]: weak mGlu5 PAM

Compound: Cc1ccc(C#Cc2cncnc2)cc1 [compound 10]
- IC50/EC50 (nM): EC50 ([1]; PAM, table value of earlier compound): 3,300±290 nM
- Fold Shift ([1]; mGlu5 PAM): 4.2 fold
- efficacy, % of glutamate max ([1]; mGlu5 PAM): 99%

Compound: Cc1ccc(C#Cc2ncccn2)cc1 [17c]
- mGlu5 activity in words [3]: inactive

Second part, led by results:

- IC50/EC50 (nM): EC50 [3]: 247 nM
Compound: CC(C)(C)c1ncc(C#Cc2ccccc2)cn1 [16e]

- IC50/EC50 (nM): EC50 [3]: 21.1 nM and 21 nM
Compound: CNc1ncc(C#Cc2cccc(C)c2)cn1 [16c]

- mGlu5 activity in words [3]: pure mGlu5 PAM
- IC50/EC50 (nM): EC50 [3]: 14.3 nM
- activity in the absence of glutamate (agonism) ([3]; no glutamate): does not activate mGlu5
Compound: CNc1ncc(C#Cc2ccccc2)cn1 [16b]
- reversal of amphetamine-induced hyperlocomotion ([11]; i.p. 3, 10 or 30 mg/kg thirty minutes prior to s.c. 1 mg/kg amphetamine, vehicle 10% Tween 80): significant reversal noted at the 30 mg/kg dose; also recorded: dose-dependent manner
- effect of compound/vehicle alone on locomotion (sedation) ([11]; without amphetamine): no effect

- IC50/EC50 (nM): IC50 [3]: 21 nM
Compound: CCOc1ncc(C#Cc2cccc(C)c2)cn1 [16a]

- IC50/EC50 (nM): EC50 [3]: 120 nM
Compound: CSc1ncc(C#Cc2ccccc2)cn1 [16d]

— PMC3192011 (Journal of medicinal chemistry, 2009)
